Patent publication US20100029761A1, “NOVEL COMPOUNDS, PHARMACEUTICAL COMPOSITIONS CONTAINING SAME, AND METHODS OF USE FOR SAME” (priority 2005, published 2010)
Values after ≈ are worked out from the molar mass of the structure shown.

What was measured:
Format in all cases: cell-based
[1] = tested on: MCF-7 human breast cancer cells; experiment: XTT cytotoxicity assay (M); conditions: MCF7, MCF-7, 72 hours
Method: The XTT assay is a non-radioactive alternative for the [^51Cr] release cytotoxicity assay. XTT is a tetrazolium salt that is reduced to a formazan dye only by metabolically active, viable cells. The reduction of XTT is measured spectrophotometrically as OD490-OD650. To measure the cytotoxicity of specific compounds against cancer cells, 9×10^3 MCF-7 human breast cancer cells, obtained from the American Type Culture Collection are plated per well in 96 well plates in DMEM medium with 10% fetal bovine serum, insulin, penicillin, and streptomycin. Following overnight culture at 37° C. and 5% CO2, the compounds to be tested, dissolved in DMSO, are added to the wells in 1 μl volume at the following concentrations: 80, 40, 20, 10, 5, 2.5, 1.25, and 0.625 μg/ml in triplicate. Additional concentrations are tested if required. 1 μl of DMSO is added to triplicate wells are the vehicle control. C75 is run at 40, 20, […], and 5 μg/ml in triplicate as positive controls. After 72 hours of incubation, cells are incubated for 4 hours with the XTT reagent as per manufacturer's instructions (Cell Proliferation Kit II (XTT) Roche). Plates are read at OD490 and OD650 on a Molecular Devices SpectraMax Plus Spectrophotometer. Three wells containing the XTT reagent without cells serve as the plate blank. XTT data are reported as OD490-OD650. Averages and standard error of the mean are computed using SOFTmax Pro software (Molecular Dynamics). The IC50 for the compounds is defined as the concentration of drug leading to a 50% reduction in OD490-OD650 compared to controls. The OD490-OD650 are computed by the SOFTmax PRO software (Molecular Devices) for each compound concentration. IC50 is calculated by linear regression, plotting the FAS activity as percent of control versus drug concentrations. Linear regression, best-fit line, r^2, and 95% confidence intervals are determined using Prism Version 3.0 (Graph Pad Software).

OV = experiment: XTT cytotoxicity assay (OV); conditions: abbreviation not defined
Method: The XTT assay is a non-radioactive alternative for the [^51Cr] release cytotoxicity assay. XTT is a tetrazolium salt that is reduced to a formazan dye only by metabolically active, viable cells. The reduction of XTT is measured spectrophotometrically as OD490-OD650. After 72 hours of incubation, cells are incubated for 4 hours with the XTT reagent as per manufacturer's instructions (Cell Proliferation Kit II (XTT) Roche). Plates are read at OD490 and OD650 on a Molecular Devices SpectraMax Plus Spectrophotometer. Three wells containing the XTT reagent without cells serve as the plate blank. XTT data are reported as OD490-OD650. Averages and standard error of the mean are computed using SOFTmax Pro software (Molecular Dynamics). The IC50 for the compounds is defined as the concentration of drug leading to a 50% reduction in OD490-OD650 compared to controls. The OD490-OD650 are computed by the SOFTmax PRO software (Molecular Devices) for each compound concentration. IC50 is calculated by linear regression, plotting the FAS activity as percent of control versus drug concentrations. Linear regression, best-fit line, r^2, and 95% confidence intervals are determined using Prism Version 3.0 (Graph Pad Software).

[2] = tested on: β-Oxidation of (1-14C) palmitic acid in cells; experiment: β-Oxidation assay, isolation of acid soluble products; parameters: unit not given here
Method: A 24 well plate with 1 ml per well was prepared with 2.5×10^5 cells /well. The cells were incubated O/N. The next day, a solubilized palmitate solution was prepared. 50 μls of (1−^14C) Palmitic acid was added to a 2 ml centrifuge tube and dried under nitrogen gas. 2 mls of α-CD (α-Cyclodextran)—10 mg/ml in 10 mM Tris were added. This solution was incubated in a 37° C. water bath for 30 minutes. A hot mix was prepared by adding 25 μl of this solution to 2.5 μls of 200 μM Carnitine and 222.5 μl of serum free medium that is used for cells. The cells were then treated with the test compound in triplicate, and incubated. at 37° C. for 60 minutes. The medium was removed and 250 μl of the hot mix were added. The test compound was added again, and further incubated at 37° C. for 60 minutes. The reaction was stopped with 50 μl of 2.6 N HClO4. The contents of the plate were transferred to a 1.5 ml centrifuge tube, and 50 μl of 4N KOH were then added, and the tube incubated in a 60° C. water bath for 30 min. Sodium acetate (1 M, 75 μl) and sulfuric acid (3N, 50 μl) were added to the solution and vortexed. The tube was spun for 7 minutes at 1000 rpm at room temperature. A portion (225 μl) was removed, and the following were added (vortex after each addition, twice at the end): 938 μl of 1:1 Chloroform: Methanol; 468 μl of Chloroform; 281 μl distilled Water. The tubes were spun at 1000 rpm for 5 minutes. The upper phase was removed into a large glass scintillation vial and 5 ml of Budget solvent (scintillation liquid) was added. The tubes were well vortexed. Finally, ^14C was counted for one minute.

[3] = tested on: MCF-7 human breast cancer cells; experiment: Crystal violet cell growth assay; conditions: MCF7, MCF-7, 72 hours, read-out: Cr. Violet (IC50)
Method: The crystal violet assay measures cell growth but not cytotoxicity. This assay employs crystal violet staining of fixed cells in 96-well plates with subsequent solubilization and measurement of OD490 on a spectrophotometer. The OD490 corresponds to cell growth per unit time measured. Cells are treated with the compounds of interest or vehicle controls and IC50 for each compound is computed.
To measure the cytotoxicity of specific compounds against cancer cells, 5×10^4 MCF-7 human breast cancer cells, obtained from the American Type Culture Collection are plated per well in 24 well plates in DMEM medium with 10% fetal bovine serum, penicillin, and streptomycin. Following overnight culture at 37° C. and 5% CO2, the compounds to be tested, dissolved in DMSO, are added to the wells in 1 μl volume at the following concentrations: 50, 40, 30, 20, and 10 μg/ml in triplicate. Additional concentrations are tested if required. 1 μl of DMSO is added to triplicate wells are the vehicle control. C75 is run at 10, and 5 μg/ml in triplicate as positive controls.
After 72 hours of incubation, cells are stained with 0.5 ml of Crystal Violet stain (0.5% in 25% methanol) in each well. After 10 minutes, wells are rinsed, air dried, and then solubilized with 0.5 ml 10% sodium dodecylsulfate with shaking for 2 hours. Following transfer of 100 μl from each well to a 96-well plate, plates are read at OD490 on a Molecular Devices SpectraMax Plus Spectrophotometer Average OD490 values are computed using SOFTmax Pro Software (Molecular Devices) and IC50 values are determined by linear regression analysis using Prism version 3.02 (Graph Pad Software, San Diego).

Row | IC50 [3] | Structure (SMILES) | IC50 [1] | IC50 (OV) | Beta oxidation ([2]; 0.09 ug/ml) | Beta oxidation ([2]; 0.39 ug/ml) | Beta oxidation ([2]; 1.56 ug/ml) | Beta oxidation ([2]; 6.25 ug/ml) | Beta oxidation ([2]; 25 ug/ml) | Beta oxidation ([2]; 100 ug/ml) | Beta oxidation ([2]; 1.25 ug/ml) | Beta oxidation ([2]; 2.5 ug/ml) | Beta oxidation ([2]; 5 ug/ml) | Beta oxidation ([2]; 10 ug/ml) | Beta oxidation ([2]; 0.19 ug/ml) | Beta oxidation ([2]; 12.5 ug/ml) | Beta oxidation ([2]; 50 ug/ml) | Beta oxidation ([2]; .78 ug/ml)
1 |  | CCCCCCCCC1OC(=O)C(OC(=O)OCC)=C1C(=O)OCC (stereo not drawn) [Compound 7] | 7.7 µg/mL (≈ 21.6 µM) | 13.8 µg/mL (≈ 38.7 µM) | 99 | 107 | 113 | 146 | 131 | 54 |  |  |  |  |  |  |  | 
2 | 28 µg/mL (≈ 98.5 µM) | CCCCCCCCC1OC(=O)C(=O)C1C(=O)OCC (stereo not drawn) [Compound 1] | 33.7 ± 14.6 µg/mL (≈ 119 µM) | 18.4 ± 5.8 µg/mL (≈ 64.7 µM) |  |  |  |  |  |  |  |  |  |  |  |  |  | 
3 | 10.7 µg/mL (≈ 35.9 µM) | CCCCCCCCC1OC(=O)C(OC)=C1C(=O)OCC (stereo not drawn) [Compound 4] | 25.3 ± 1.5 µg/mL (≈ 84.8 µM) | 9.2 µg/mL (≈ 30.8 µM) |  |  |  |  |  |  | 112 | 119 | 116 | 104 |  |  |  | 
4 | 22 µg/mL (≈ 67.8 µM) | C=CCOC1=C(C(=O)OCC)C(CCCCCCCC)OC1=O (stereo not drawn) [Compound 6] | > 80 µg/mL | > 80 µg/mL |  |  |  |  |  |  | 118 | 125 | 112 | 101 |  |  |  | 
5 | 41.9 µg/mL (≈ 184 µM) | CCCCC1OC(=O)C(O)=C1C(=O)OCC (stereo not drawn) [Compound 2] | > 80 µg/mL | 66.1 µg/mL (≈ 290 µM) |  | 102 | 112 |  |  |  |  |  |  |  | 102 | 108 | 45 | 107
6 | 17.1 µg/mL (≈ 45.7 µM) | CCCCCCCCC1OC(=O)C(OCc2ccccc2)=C1C(=O)OCC (stereo not drawn) [Compound 5] | > 80 µg/mL | 33.9 µg/mL (≈ 90.5 µM) |  |  |  |  |  |  | 108 | 101 | 115 | 74 |  |  |  | 
7 | 35.4 µg/mL (≈ 95.6 µM) | CCCCCCCCC1OC(=O)C(OCC(=O)OCC)=C1C(=O)OCC (stereo not drawn) [Compound 3] | 26.7 ± 5.3 µg/mL (≈ 72.1 µM) | 24.1 µg/mL (≈ 65.1 µM) |  |  |  |  |  |  | 113 | 131 | 138 | 79 |  |  |  | 
